Results: US5342980A, “Fungicidal agents” (American Cyanamid Company, priority 1992, dated 1994)

Key:
[1] = tested on: Pseudocercosporella herpotrichoides; test: In vivo fungicidal evaluation, Wheat Eyespot (WES); conditions: 400 ppm, plants sprayed before inoculation
[2] = tested on: Puccinia recondita f. sp. tritici; test: In vivo fungicidal evaluation, Wheat Leaf Rust (WLR); conditions: 200 ppm, plants sprayed before inoculation
[3] = tested on: Erysiphe graminis f. sp. tritici; test: In vivo fungicidal evaluation, Wheat Powdery Mildew (WPM); conditions: 200 ppm, plants sprayed before inoculation
Venturia inaequalis = test: In vivo fungicidal evaluation, Apple Scab (AS); conditions: 200 ppm, plants sprayed before inoculation
Mycosphaerella fijiensis = test: Control of banana black sigatoka on banana seedlings; assay type: in vivo; conditions: 200 ppm, leaves sprayed to run-off; 28 to 40 days post inoculation
Protocol: Test compounds are dissolved in acetone and diluted with distilled water containing about 0.05% TWEEN 20® to give a concentration of 200 ppm. Banana seedlings at the 6-7 leaf stage are sprayed with test solution on the upper and lower surfaces of the 3 youngest, unfurled leaves to the point of run-off, dried and inoculated with a spore suspension of Mycosphaerella fijiensis. The inoculated banana seedlings are placed outdoors in a plastic tunnel lined with wet jute sacks. The temperature is maintained between about 25° and 32° C. and the relative humidity is maintained between about 85% and 100%. After five days, the banana seedlings are transferred to a partially shaded screenhouse, surrounded with wet jute sacks and misted daily. When disease symptom development is optimal, typically 28 to 40 days post inoculation, the banana seedlings are rated for disease control according to the rating scale shown below. Each test contains inoculated treated plants, inoculated untreated plants and a reference standard. When more than one test is run, the data are averaged.

Botrytis cinerea = test: In vivo fungicidal evaluation, Pepper Botrytis (PB); conditions: 200 ppm, plants sprayed before inoculation
Rhizoctonia solani [4] = test: In vitro fungicidal evaluation, growth inhibition (RHIZSO); assay type: cell-based; parameters: scale not given here; conditions: 25 ppm, 3-4 days at 21° C.
Protocol: (§1) Test compounds are dissolved in acetone and dispersed into cell well plates containing a suspension of ground fungal mycelia in a nutrient broth. Assay plates are incubated for 3-4 days at 21° C. Growth inhibition is measured visually and is rated using the following scale:
(§2) Untreated controls, solvent blanks and reference standards are included in each test.
(§3) Assay fungi include the plant pathogens, Pythium ultimum (Pythul); Rhizoctonia solani (Rhizso); Fusarium oxysporum f. sp. cucumerinum (Fusoxc); and Pseudocercosporella herpotrichoides (Psdche).
(§4) When more than one test is run, the data are averaged.

Pythium aphanidermantum = test: Control of soil borne diseases, Cucumber damping-off by Pythium (CUPA); assay type: in vivo; conditions: 14-18 days after treatment; also: ranges in brackets are in %
Protocol: (§5) Pasturized soil (100 mL) is added to 6 cm diameter plastic cups without drainage holes and covered with pathogen contaminated soil (30 mL). Ten germinated cucumber seeds are planted on the contaminated soil and the seeds are covered with pasteurized soil (20 mL). Test compounds are dissolved in acetone, diluted with deionized water containing about 0.05% TWEEN 20®, and applied to the pots by drenching the soil surface with 15 mL of test solution. The pots are placed in a greenhouse for disease development. The pots are watered lightly until plants emerge from the soil surface. Disease evaluations are made 14-18 days after treatment according to the rating scale shown below.

[5] = tested on: Pseudocercosporella herpotrichoides; test: In vitro fungicidal evaluation, growth inhibition (PSDCHE); assay type: cell-based; parameters: scale not given here; conditions: 25 ppm, 3-4 days at 21° C.
Protocol: as §1, §2, §3, §4

Pyricularia oryzae = assay type: in vivo; conditions: 200 ppm, plants sprayed before inoculation
Plasmopara viticola = test: In vivo fungicidal evaluation, Grape Downy Mildew (GDM); conditions: 200 ppm, plants sprayed before inoculation
Alternaria solani = test: In vivo fungicidal evaluation, Tomato Early Blight (TEB); conditions: 200 ppm, plants sprayed before inoculation
Cercospora beticola = test: In vivo fungicidal evaluation, Sugar Beet Cercospora (SBC); conditions: plants sprayed before inoculation
[6] = tested on: Fusarium oxysporium f. sp. cucumerinum; test: Control of soil borne diseases, Cucumber Fusarium Wilt (CUFO); assay type: in vivo; conditions: 14-18 days after treatment; also: ranges in brackets are in %
Protocol: as §5

Rhizoctonia solani [7] = test: In vivo fungicidal evaluation, Rice Sheath Blight (RSB); conditions: 400 ppm, plants sprayed before inoculation
[8] = tested on: Fusarium oxysporum f. sp. cucumerinum; test: In vitro fungicidal evaluation, growth inhibition (FUSOXC); assay type: cell-based; parameters: scale not given here; conditions: 25 ppm, 3-4 days at 21° C.
Protocol: as §1, §2, §3, §4

Cercospora arachidicola = test: In vivo fungicidal evaluation, Peanut Cercospora Early Leaf Spot (PCE); conditions: 400 ppm, plants sprayed before inoculation
Rhizoctonia solani [9] = test: Control of soil borne diseases, Cucumber damping-off by Rhizoctonia (CURS); assay type: in vivo; conditions: 14-18 days after treatment; also: ranges in brackets are in %
Protocol: as §5

Pythium ultimum = test: In vitro fungicidal evaluation, growth inhibition (PYTHUL); assay type: cell-based; parameters: scale not given here; conditions: 25 ppm, 3-4 days at 21° C.
Protocol: as §1, §2, §3, §4

| Compound | disease control rating, WLR [2] | disease control rating, WPM [3] | disease control rating, AS (Venturia inaequalis) | disease control rating, PB (Botrytis cinerea) | growth inhibition rating, RHIZSO (Rhizoctonia solani [4]) | disease control rating, CUPA (Pythium aphanidermantum; 2.5 kg/ha soil drench) | disease control rating, CUPA (Pythium aphanidermantum; 5.0 kg/ha soil drench) | disease control rating, CUPA (Pythium aphanidermantum; 10.0 kg/ha soil drench) | growth inhibition rating, PSDCHE [5] | disease control rating, RB (Pyricularia oryzae) | disease control rating, GDM (Plasmopara viticola) | disease control rating, TEB (Alternaria solani) | disease control rating, SBC (Cercospora beticola; 200 ppm) | disease control rating, SBC (Cercospora beticola; 400 ppm) | disease control rating, CUFO ([6]; 2.5 kg/ha soil drench) | disease control rating, CUFO ([6]; 5.0 kg/ha soil drench) | disease control rating, CUFO ([6]; 10.0 kg/ha soil drench) | disease control rating, RSB (Rhizoctonia solani [7]) | growth inhibition rating, FUSOXC [8] | growth inhibition rating, PYTHUL (Pythium ultimum) | also measured |
| --- | --- | --- | --- | --- | --- | --- | --- | --- | --- | --- | --- | --- | --- | --- | --- | --- | --- | --- | --- | --- | --- |
| CN([O-])C(=S)C(=O)C(C)(C)C.CN([O-])C(=S)C(=O)C(C)(C)C.[Cu+2] [N,3,3-trimethyl-2-oxo-1-thiobutyrohydroxamic acid copper(+2) chelate] | 6.5 | 5.0 | 8.0 | 6.5 | 8.5 | 1 (5-10) | 2 (15-25) | 1 (5-10) | 8.5 | 0.0 | 7.7 | 9.0 | 7.2 | 6.1 | 3 (30-40) | 5 (60-70) | 6 (75-85) | 4.7 | 4.8 | 8.0 | disease control rating, WES [1]: 6.7; Control of Banana Black Sigatoka (rating) (Mycosphaerella fijiensis): 6.3; disease control rating, PCE (Cercospora arachidicola): 7.0; disease control rating, CURS (Rhizoctonia solani [9]; 2.5 kg/ha soil drench): 5 (60-70); disease control rating, CURS (Rhizoctonia solani [9]; 5.0 kg/ha soil drench): 6 (75-85); disease control rating, CURS (Rhizoctonia solani [9]; 10.0 kg/ha soil drench): 9 (100) |
| CN([O-])C(=S)C(=O)C(C)(C)C.CN([O-])C(=S)C(=O)C(C)(C)C.CN([O-])C(=S)C(=O)C(C)(C)C.[Fe+3] [N,3,3-trimethyl-2-oxo-1-thiobutyrohydroxamic acid iron(+3) chelate] | 6.5 | 5.5 | 9.0 | 6.0 | 4.5 | 0 (0) | 1 (5-10) | 2 (15-25) | 2.5 | 0.0 | 8.5 | 9.0 | 8.2 | 6.8 | 1 (5-10) | 2 (15-25) | 3 (30-40) | 3.3 | 1.3 | 8.0 | disease control rating, CURS (Rhizoctonia solani [9]; 2.5 kg/ha soil drench): 4 (45-55); disease control rating, CURS (Rhizoctonia solani [9]; 5.0 kg/ha soil drench): 6 (75-85); disease control rating, CURS (Rhizoctonia solani [9]; 10.0 kg/ha soil drench): 9 (100) |
| CN(O)C(=S)C(=O)C(C)(C)C.CN(O)C(=S)C(=O)C(C)(C)C.[Mn+2] [N,3,3-trimethyl-2-oxo-1-thiobutyrohydroxamic acid manganese(+2) chelate] | 6.5 | 7.0 | 8.5 | 8.5 | 4.5 |  |  |  | 7.0 | 3.0 | 5.5 | 8.5 | 7.5 |  |  |  |  | 0.0 | 0.0 | 6.0 |  |
| CN([O-])C(=S)C(=O)C(C)(C)C.CN([O-])C(=S)C(=O)C(C)(C)C.[Zn+2] [N,3,3-trimethyl-2-oxo-1-thiobutyrohydroxamic acid zinc(+2) chelate] | 7.5 | 3.0 | 9.0 | 8.5 | 4.5 | 0 (0) | 2 (15-25) | 4 (45-55) | 4.0 | 8.0 | 9.0 | 8.5 | 8.4 | 7.5 | 2 (15-25) | 1 (5-10) | 4 (45-55) | 6.0 | 4.5 | 8.5 | disease control rating, CURS (Rhizoctonia solani [9]; 2.5 kg/ha soil drench): 4 (45-55); disease control rating, CURS (Rhizoctonia solani [9]; 5.0 kg/ha soil drench): 6 (75-85); disease control rating, CURS (Rhizoctonia solani [9]; 10.0 kg/ha soil drench): 9 (100) |
| CN(O)C(=S)C(=O)C(C)(C)C [N,3,3-trimethyl-2-oxo-1-thiobutyrohydroxamic acid] | 1.7 | 6.3 | 5.0 | 3.0 | 6.0 | 2 (15-25) | 2 (15-25) | 3 (30-40) | 1.0 | 2.7 | 4.3 | 2.7 | 7.0 | 3.5 | 1 (5-10) | 0 (0) | 1 (5-10) | 0.3 | 0.0 | 6.0 | Control of Banana Black Sigatoka (rating) (Mycosphaerella fijiensis): 3.7; disease control rating, CURS (Rhizoctonia solani [9]; 2.5 kg/ha soil drench): 2 (15-25); disease control rating, CURS (Rhizoctonia solani [9]; 5.0 kg/ha soil drench): 5 (60-70); disease control rating, CURS (Rhizoctonia solani [9]; 10.0 kg/ha soil drench): 7 (90) |
| C=CC(=O)ON(C)C(=S)C(=O)C(C)(C)C [acrylate ester of N,3,3-trimethyl-2-oxo-1-thiobutyrohydroxamate] |  | 0.0 | 0.0 | 2.0 | 0.0 |  |  |  | 7.0 | 0.0 | 0.0 | 0.0 | 0.0 |  |  |  |  |  | 0.0 | 9.0 |  |
| COC(=O)ON(C)C(=S)C(=O)C(C)(C)C [methylcarbonate ester of N,3,3-trimethyl-2-oxo-1thiobutyrohydroxamate] |  | 0.0 | 0.0 | 0.0 | 0.0 |  |  |  | 0.0 | 0.0 | 0.0 | 2.0 | 0.0 |  |  |  |  |  | 0.0 | 5.0 |  |
| CN(OC(=O)c1ccc(Cl)cc1)C(=S)C(=O)C(C)(C)C [p-Chlorobenzoate ester of N,3,3-trimethyl-2-oxo-1-thiobutyrohydroxamate] |  | 3.0 | 8.0 | 8.0 | 0.0 |  |  |  | 0.0 | 6.0 | 0.0 | 6.0 | 4.0 |  |  |  |  |  | 0.0 | 0.0 |  |
| N-methyl-alpha-thio-1-adamantaneglyoxylohydroxamic acid zinc(+2) chelate |  | 0.0 | 0.0 | 0.0 | 0.0 |  |  |  | 0.0 | 0.0 | 0.0 | 0.0 | 0.5 | 3.0 |  |  |  |  | 0.0 | 1.5 |  |
